Data reported in US4593093A, “Acyl derivatives” (priority 1980, dated 1986).
Counter-ions that a name gives are not always drawn.

Assays:
[1] = test system: Escherichia coli; assay: Activity in vitro: minimum inhibitory concentration; type: cell-based
[2] = test system: Pseudomonas aeruginosa; assay: Activity in vivo: survival of intraperitoneally infected mice; details: sc, 96 h; mice infected i.p. with Pseudomonas aeruginosa; s.c. three times, 1 h, 3 h and 5 h after infection; survival on 4th day; read-out: CD50 (dosage at which 50% of the animals survive)
Protocol: (§1) Groups of 5 mice are infected intraperitoneally with an aqueous suspension of various pathogens. The test substance in physiological sodium chloride solution is administered subcutaneously twice, i.e. 1 hour and 3 hours after the infection. The number of surviving animals is determined on the 4th day. Various dosages are administered and that dosage at which 50% of the experimental animals survive (CD50, mg/kg) is determined by interpolation.
*Administered subcutaneously three times: 1 hour, 3 hours and 5 hours

[3] = test system: Proteus morganii; assay: Activity in vitro: minimum inhibitory concentration; type: cell-based; details: Morganella morganii
[4] = Toxicity, LD50; details: in vivo
[5] = test system: Staphylococcus aureus; assay: Activity in vitro: minimum inhibitory concentration; type: cell-based
[6] = test system: Proteus vulgaris; assay: as above; type: cell-based
[7] = test system: Klebsiella pseumoniae; assay: as above; type: cell-based
[8] = test system: Streptococcus pyogenes; assay: as above; type: cell-based; details: Streptococcus pyogenes strain 1, read-out: Minimum inhibitory concentration
[9] = test system: Enterobacter cloacae; assay: as above; type: cell-based
[10] = test system: Proteus mirabilis; assay: as above; type: cell-based
[11] = test system: Pseudomonas aeruginosa; assay: as above; type: cell-based
[12] = test system: Escherichia coli; assay: Activity in vivo: survival of intraperitoneally infected mice; details: sc, 96 h; mice infected i.p. with Escherichia coli; s.c. twice, 1 h and 3 h after infection; survival on 4th day; read-out: CD50 (dosage at which 50% of the animals survive)
Protocol: as §1

[13] = test system: Streptococcus pyogenes; assay: as above; details: sc, 96 h; mice infected i.p. with Streptococcus pyogenes; s.c. twice, 1 h and 3 h after infection; survival on 4th day; read-out: CD50 (dosage at which 50% of the animals survive)
Protocol: as §1

[14] = test system: Serratia marcescens; assay: as above; details: sc, 96 h, mice infected i.p. with Serratia marcescens strain 1, s.c. twice, 1 h and 3 h after infection, survival on 4th day, read-out: CD50 (dosage at which 50% of the animals survive)
Protocol: as §1

[15] = test system: Serratia marcescens; assay: Activity in vitro: minimum inhibitory concentration; type: cell-based
[16] = test system: Citrobacter freundii; assay: as above; type: cell-based; details: Citrobacter freundii strain 1

SMILES: CO/N=C(\C(=O)N[C@@H]1C(=O)N2C(C(=O)O)=C(COC(C)=O)CS[C@H]12)c1c[se]c(N)n1 [Product D, (6R, 7R)-3-(acetoxymethyl)-7-[2-(2-amino-4-selenazolyl)-2-[(Z)-methoxyimino]-acetamido]-8-oxo-5-thia-1-azabicyclo[4.2.0]oct-2-ene-2-carboxylic acid disodium salt]
- MIC ([1]; Escherichia coli strain 1): 0.1 µg/mL
- MIC ([1]; Escherichia coli strain 2): 0.025 µg/mL
- ED50 [2]: 35 mg/kg
- MIC [3]: 0.39 µg/mL
- LD50 ([4]; po): > 5000 mg/kg
- LD50 ([4]; sc): > 4000 mg/kg
- MIC ([5]; Staphylococcus aureus strain 1): 0.8 µg/mL
- MIC ([5]; Staphylococcus aureus strain 2): 3.1 µg/mL
- MIC [6]: 0.78 µg/mL
- MIC ([7]; Klebsiella pseumoniae strain 1): 0.2 µg/mL
- MIC ([7]; Klebsiella pseumoniae strain 2): 0.025 µg/mL
- MIC [8]: 0.05 µg/mL
- MIC ([9]; Enterobacter cloacae strain 1): > 100 µg/mL
- MIC ([9]; Enterobacter cloacae strain 2): 3.1 µg/mL
- MIC ([10]; Proteus mirabilis strain 1): 0.025 µg/mL
- MIC ([10]; Proteus mirabilis strain 2): 0.05 µg/mL
- MIC ([11]; Pseudomonas aeruginosa strain 1): 12.5 µg/mL
- MIC ([11]; Pseudomonas aeruginosa strain 2): 12.5 µg/mL
- MIC ([11]; Pseudomonas aeruginosa strain 3): 3.1 µg/mL
- ED50 [12]: < 0.01 mg/kg
- ED50 [13]: 0.05 mg/kg
- ED50 [14]: 0.14 mg/kg
- MIC ([15]; Serratia marcescens strain 1): 0.8 µg/mL
- MIC ([15]; Serratia marcescens strain 2): 0.8 µg/mL
- MIC [16]: 6.3 µg/mL
